Here are results for one compound from patent publication US20170027896A1, “METHODS AND COMPOSITIONS FOR THE TREATMENT OF VASCULAR MALFORMATION” (IFOM - FONDAZIONE ISTITUTO FIRC DI ONCOLOGIA MOLECOLARE, priority 2014, published 2017).

Data set [1] concerns cavernoma lesions in the brain of CCM1-ECKO mice. As to the kind of experiment: Cavernoma lesions in the brain of CCM1-ECKO mice. It counts as in vivo, mouse. From the text: (§1) CCM1-ECKO and CCM2-ECKO have been obtained from CCM1-flox/flox and CCM2-flox/flox mice as described in details above for CCM3-ECKO mice, see also Maddaluno et al, 2013 and Boulday et al, 2011.
In data set [2] the test system is CCM1 KO endothelial cells. Briefly: Endothelial cell-to-cell contacts in CCM1 KO endothelial cells in culture. It counts as cell-based, mouse.
In data set [3] the test system is vascular lesions in the brain of CCM3-ECKO mice. As to the kind of experiment: Assessment of lesion burden in brains of CCM3-ECKO mice. The class given is in vivo, mouse. As to conditions: CCM3-ECKO pups dpn 9; 30 mg/kg intragastrically daily; controls 166.8±22 (sulfide study), 153.5±28 (sulfone study). From the text:
(§2) The CCM3-flox/flox mice were generated at TaconicArtemis (Koeln, Germany). Two P-lox sequences were inserted that flank exons 4 and 5 of the murine CCM3 gene, to produce a loss-of-function mutation after excision by Ore recombinase. These CCM3-flox/flox mice were bred with Cdh5(PAC)-CreERT2 mice (Wang et al, 2010) for tamoxifen-inducible endothelial-cell-specific expression of Ore-recombinase and CCM3 gene recombination. The CCM3-flox/flox-Cdh5(PAC)-CreERT2 mice were further bred with BAT-gal mice (Maretto et al, 2003) to monitor the activation of b-catenin transcription signaling, and with Rosa 26-Enhanced […] Fluorescent Protein (EYFP) (Rosa26EYFP) mice (Srinivas et al, 2001) to monitor the expression of Ore-recombinase through the expression of EYFP. Tamoxifen (Sigma) was dissolved in corn oil and 10% ethanol (at 10 mg/ml), and then diluted 1:5 in corn oil before single intragastric administration to dpn 1-2 pups (35 mg/kg body weight), as described in^14. The control (wild-type) mice included CCM3-flox/flox-Cdh5(PAC)-CreERT2-BAT-gal mice treated with the vehicle used to dissolve the tamoxifen (corn oil plus 2% ethanol), and CCM3^+/+-Cdh5(PAC)-CreERT2-BAT-gal mice treated with tamoxifen.
(§3) Brains and eyes from mice pups were fixed in 3% paraformaldehyde immediately after dissection, and this fixing was continued overnight at 4° C. The retinas were dissected from the eyes just before staining as the whole mount. Fixed brains were embedded in 4% low-melting-point agarose and sectioned along the sagittal axis ([…]) using a vibratome (1000 Plus, The Vibratome Company, St. Louis, Mo., US).
For the classification and counting of lesions, entire brains from dpn 9 littermate pups were sectioned and immunostained for Pecam as described above and in the Methods. Sections were then examined under wide-field fluorescence microscopy (10× and 20×). Lesions were classified as described in^63 as mulberry (multiple cavernae, group of more than two contiguous cavernae), single caverna (single dilated vessel with maximal diameter accommodating more than 25 red blood cells), or telangiectases, tortuous small vessels with abnormally dilated lumen). The total numbers of lesions were calculated by summing all of the types of lesions.
As the sections were […], a correction was applied to the number of mulberry lesions, which can span two sections. Therefore, the number of mulberry lesions was divided by […]. The lesions were counted and classified independently by two observers who were blinded to the treatments.
The maximal diameter of the mulberry lesions and single cavernae was used for statistical comparison.

The test system of data set [4] is CCM3-ECKO mice. As to the kind of experiment: Bleeding and mortality in drug-treated CCM3-ECKO mice. As to conditions: mouse, in vivo. As for the experimental part: Sulindac sulfide (Sigma) and sulindac sulfone (Sigma) were both dissolved in DMSO and further diluted 1:50 in corn oil. They were administered intragastrically, daily (30 mg/kg body weight), starting one day after the induction of recombination. The control mice were treated in parallel with vehicle only (corn oil plus 2% DMSO).

Data set [5] has as its system platelets. As to conditions: cited from earlier work.
The test system of data set [6] is CCM3-knockout endothelial cell line. As to the kind of experiment: Immunostaining of CCM3-knockout endothelial cell line. The class given is cell-based, mouse. As to conditions: 48 h. The method, then:
(§4) In some experiments, endothelial cell lines from the lungs of CCM3-flox/flox mice (8-10 weeks old) were immortalized in culture through retroviral expression of polyoma middle T gene^60. […] These cells were then maintained in culture for up to 25 passages without detectable changes in the effects of this CCM3 ablation.
(§5) Drugs were added to confluent cells for 48 h before the indicated assays. The final concentrations used were: […] (all from Sigma-Aldrich). As all of these were dissolved in DMSO, control treatment (vehicle) was 0.1% DMSO final concentration, as for drug treatment.
Cells cultured in vitro were fixed and stained as described previously^46.
(§6) The following antibodies were used: anti-Pecam (hamster; MAB1398Z, Millipore); anti-b-galactosidase (chicken; ab9361, Abcam); anti-VE-cadherin (rat monoclonal; 550548, BD Biosciences); anti-VE-cadherin (goat; sc-6458, Santa Cruz); anti-active-b-catenin (mouse monoclonal clone 8E7) dephosphorylated on Ser37 and Thr41, Millipore); anti-total-b-catenin (mouse monoclonal; Cell Signaling); anti-S100a4 (rabbit; 07-2274, Millipore); anti-Klf4 (goat; AF3158, R&D); anti-CD44 (rat; 553131, BD Biosciences); anti-ID1 (rabbit; sc-488, Santa Cruz); anti-aSMA (mouse monoclonal; F3777, Sigma); anti-GFP (rabbit; A-6455, Invitrogen); anti-podocalyxin (goat; AF1556, R&D); anti-phospho-histone H3 (rabbit; ab51776, Millipore); anti-CCM3 (rabbit; Eurogentec); anti-p-Smad1 (rabbit; 9516, Cell Signaling); anti-endomucin (rabbit; sc-65495, Santa Cruz); anti-α-tubulin (mouse monoclonal; T9026, Sigma).

Data set [7] concerns b-catenin transcription activity in brain endothelial cells of CCM3-ECKO mice. Briefly: Immunostaining of brain sections of CCM3-ECKO mice (b-gal reporter, progenitor/EndMT markers, VE-cadherin). Conditions: CCM3-ECKO pups, dpn 9. The class given is in vivo, mouse.
Description: as §2, §3
Brain sections and retinas were stained as floating samples in 12-well and 96-well plates, respectively. They were blocked overnight at 4° C. in 1% fish-skin gelatin with 0.5% Triton X100 and 5% donkey serum in phosphate-buffered saline (PBS) containing 0.01% thimerosal. The samples were incubated overnight at 4° C. with the primary antibodies diluted in 1% fish-skin gelatin with 0.25% Triton X100 in PBS containing 0.01% thimerosal. Following washing with 0.1% Triton X100 in PBS, the secondary antibodies were added for 4 h at room temperature in 1% fish-skin gelatin with 0.25% Triton X100 in PBS containing 0.01% thimerosal. The incubation with DAPI was in PBS for 4 h, which was followed by several washes in PBS, post-fixating with 3% paraformaldehyde for 5 min at room temperature, and further washes in PBS. The brain sections were mounted in Vectashield with DAPI, and the coverslips fixed with nail varnish; the retinas were mounted in Prolong gold with DAPI.
as §6

Data set [8] deals with cyclooxygenase. As to conditions: reported; cited from earlier work.
For data set [9], the system named is CCM1 KO endothelial cells. Briefly: Expression of EndMT markers in CCM1 KO endothelial cells in culture. It counts as cell-based, mouse. The method, then: as §1
(§7) RNA extraction was performed with RNeasy kits (74106; […]). The RNA (1 μg) was reverse transcribed with random hexamers (High Capacity cDNA Archive kits; Applied Biosystems). The cDNA was amplified with TaqMan gene expression assays (Applied Biosystems) using a 7900 HT thermocycler (ABI/Prism). For each sample, the expression levels were determined with the comparative threshold cycle (Ct) method, and normalized to the housekeeping genes encoding 18S and glyceraldehyde-3-phosphate dehydrogenase (GAPDH). For amplification, the following probes (Applied Biosystems) that have been validated to recognize the mouse transcripts in rtPCR were used: Axin2, Nkd1, Lef1, ccnd1, cMyc-Klf4, Ly6a, S100a4, Id1, Cdh2, Acta2, CD44. The probes to identify the CCM3 mRNA transcript were custom designed, as: forward, […] (SEQ ID No. 12); reverse, GCTCTGGCCGCTCAATCA (SEQ ID No. 13); reporter sequence, […] (SEQ ID No. 14).

In data set [10] the test system is CCM3-knockout endothelial cell line. As to the kind of experiment: rtPCR of b-catenin target gene and progenitor/EndMT markers in CCM3-knockout endothelial cell line. It counts as cell-based, mouse. Conditions: 48 h; 135 mM sulindac sulfide, 125 mM sulindac sulfone, 200 mM silibinin, 250 mM salinomycin. The method, then:
as §4, §5, §7

SMILES strings stand for the structures. “Also recorded” adds a separate entry of the source. Read-outs that look alike come from different tables or passages of the source.

Consider `CC1=C(CC(=O)O)c2cc(F)ccc2/C1=C\c1ccc(S(C)(=O)=O)cc1` [sulindac sulfone, (Z)-5-Fluoro-2-methyl-1-[4-(methylsulfonyl)benzylidene]indene-3-acetic acid], for which the “formation of cavernoma lesions in the brain” value in data set [1] is reported as “inhibits”. The “organization of endothelial cell-to-cell contacts” value in data set [2] is listed as “induces re-organization”. In [3], the “mean number (±SD) of vascular lesions per brain” value came out at 68.6±10. Moreover, the “bleeding from vascular lesions or mortality versus vehicle-treated mice” value in data set [4] is “did not observe either increased bleeding from vascular lesions or mortality”. The anti-platelet activity entry in data set [5] was “lacks anti-platelet activity”. Besides, the “nuclear accumulation of active b-catenin / distribution to adherens junctions” value in data set [6] was “inhibited; also recorded: reduced”. Moreover, the “overexpression of progenitor/EndMT marker proteins (Klf4, S100a4, Id1, CD44)” value in data set [6] is on record as “strongly reduced; also recorded: inhibited”. Moreover, the “VE-cadherin localization at endothelial cell-cell junctions in brain vessels” value in data set [7] was “restored its localization to cell-cell junctions”. For the same compound, in [7] (immunostaining), the “expression of b-catenin target genes / progenitor and EndMT markers (Klf4, S100a4, Id1) in brain endothelium” value is “reduced this nuclear reactivity; also recorded: inhibited”. Moreover, in [8], the anti-cyclooxygenase activity result is on record as “devoid of anti-cyclooxygenase activity”. The “expression of EndMT markers” value was “inhibits” in [9] and “inhibition” in [9] (listed as exisulind). Also, in [10], the “inhibition of transcription of Axin2, Klf4 and S100a4 (rtPCR)” value is listed as “greatest inhibition; also recorded: most effective”.
